Measurements taken from patent publication US11286268B1, “EIF4E-inhibiting compounds and methods” (EFFECTOR THERAPEUTICS, INC., priority 2019, dated 2022).
Like-named read-outs stand apart in the source and are kept apart here.

Target: recombinant eIF4E (Homo sapiens (Human), UniProt P06730)
Test: Fluorescence polarization competition assay for eIF4E binding potency
Outline: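 IC50 values reflect 50% displacement of 20 nM EDA-m7GDP-ATTO-550 from 75 nM eIF4E, measured by fluorescence polarization after 30 min at room temperature. Buffer: 20 mM Tris pH 7.5, 100 mM NaCl, 1 mM DTT, 0.02% Tween-20; 1% DMSO.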

[1] = fluorescence polarization competition, 75 nM recombinant eIF4E, 20 nM EDA-m7GDP-ATTO-550, IC50 class, read-out: elF4E FP
[2] = inhibition of eIF4E/EDA-m7GDP-ATTO-550 binding by 50%, Table 4B calculated values, read-out: IC50

Sequence of recombinant eIF4E (P06730 whole entry): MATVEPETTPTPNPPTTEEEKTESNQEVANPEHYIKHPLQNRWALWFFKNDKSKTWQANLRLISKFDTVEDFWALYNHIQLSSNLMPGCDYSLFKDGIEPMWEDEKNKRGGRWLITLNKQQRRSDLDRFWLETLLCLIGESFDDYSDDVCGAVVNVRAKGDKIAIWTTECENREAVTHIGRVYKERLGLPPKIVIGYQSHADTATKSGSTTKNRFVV

IC50 [1] | IC50 [2] | SMILES
< 50 nM | 11.4 nM | Cc1nc2ccc(OC(F)(F)F)c(C#N)c2c(=O)n1CCOc1ccc(Cl)cc1-c1ccnc2c(C(=O)O)csc12 [compound 406]
< 50 nM | 33.1 nM | Cc1nc2c(F)cc(Cl)c(C#N)c2c(=O)n1CCOc1ccc(Cl)cc1-c1ccnc2c(C(=O)O)csc12 [compound 407]
< 50 nM | 31.1 nM | Cc1nc2cc(C(F)(F)F)c(CN(C)C)cc2c(=O)n1CCOc1ccc(Cl)cc1-c1ccnc2c(C(=O)O)csc12 [compound 408]
< 50 nM | 13.3 nM | Cc1cc(-c2cc(Cl)ccc2OCCc2c(C)n(C)c3cc(C(F)(F)F)cc(C#N)c3c2=O)c2scc(C(=O)O)c2n1 [compound 409]
50 to 1000 nM | 62.6 nM | Cc1cc(-c2cc(Cl)ccc2OCCn2c(C)nc3cc(C(F)(F)F)cc(C#N)c3c2=O)cc(C(=O)O)n1 [compound 410]
50 to 1000 nM | 193 nM | Cc1cc(-c2cc(Cl)ccc2OCCn2c(C)nc3cc(C(F)(F)F)cc(C#N)c3c2=O)cc(CC(=O)O)n1 [compound 411]
50 to 1000 nM | 70.1 nM | CNC(=O)c1cc(C#N)c2c(=O)n(CCOc3ccc(Cl)cc3-c3ccnc4c(C(=O)O)csc34)c(C)nc2c1 [compound 412]
< 50 nM | 34.6 nM | Cc1nc2cc(C(=O)N(C)C)cc(C#N)c2c(=O)n1CCOc1ccc(Cl)cc1-c1ccnc2c(C(=O)O)csc12 [compound 413]
< 50 nM | 20.5 nM | CC(=O)c1cnn2c(-c3cc(Cl)ccc3OCCn3c(C)nc4cc(C(F)(F)F)cc(C#N)c4c3=O)cc(C)nc12 [compound 414]
< 50 nM | 14.3 nM | Cc1c(C(F)(F)F)cc2nc(C)n(CCOc3ccc(Cl)cc3-c3ccnc4c(C(=O)O)csc34)c(=O)c2c1C#N [compound 415]
< 50 nM | 23 nM | Cc1c(C(F)(F)F)cc(C#N)c2c(=O)n(CCOc3ccc(Cl)cc3-c3ccnc4c(C(=O)O)csc34)c(C)nc12 [compound 416]
< 50 nM | 19.7 nM | Cc1cc(-c2cc(Cl)ccc2OCCn2c(C)nc3cc(C(F)(F)F)c(CN4CCN(C)CC4)c(C#N)c3c2=O)c2sc(C)c(C(=O)O)c2n1 [compound 417]
< 50 nM | 9.07 nM | Cc1cc(-c2cc(Cl)ccc2OCCn2c(C)nc3cnc(C4CC4)c(C#N)c3c2=O)c2scc(C(=O)O)c2n1 [compound 418]
< 50 nM | – | Cc1cc(-c2cc(Cl)ccc2OCCn2c(C)nc3cnc(C)c(C#N)c3c2=O)c2scc(C(=O)O)c2n1 [compound 419]
< 50 nM | 9.6 nM | Cc1cc(-c2cc(Cl)ccc2OCCn2c(C)nc3cnc(C(C)(C)C)c(C#N)c3c2=O)c2scc(C(=O)O)c2n1 [compound 420]
< 50 nM | – | Cc1cc(-c2cc(Cl)ccc2OCCn2c(C)nc3cc(C(F)(F)F)c(-c4ccccn4)c(C#N)c3c2=O)c2sc(C)c(C(=O)O)c2n1 [compound 421]
< 50 nM | 11.5 nM | Cc1cc(-c2cc(Cl)ccc2OCCn2c(C)nc3cc(C(F)(F)F)c(N4CCCC4)c(C#N)c3c2=O)c2scc(C(=O)O)c2n1 [compound 422]
< 50 nM | 8.84 nM | Cc1cc(-c2cc(Cl)ccc2OCCn2c(C)nc3cc(C(F)(F)F)c(N4CCCCC4)c(C#N)c3c2=O)c2scc(C(=O)O)c2n1 [compound 423]
< 50 nM | 4.08 nM | Cc1cc(-c2cc(Cl)ccc2OCCn2c(C)nc3cc(C(F)(F)F)c(CC4CNC4)c(C#N)c3c2=O)c2scc(C(=O)O)c2n1 [compound 424]
< 50 nM | 11.2 nM | Cc1cc(-c2cc(Cl)ccc2OCCn2c(C)nc3cc(C(F)(F)F)c(CC4CN(C)C4)c(C#N)c3c2=O)c2scc(C(=O)O)c2n1 [compound 425]
< 50 nM | 41.2 nM | Cc1cc(-c2cc(Cl)ccc2OCCn2c(C)nc3cc(C(F)(F)F)c(-c4ccccn4)cc3c2=O)c2scc(C(=O)O)c2n1 [compound 426]
< 50 nM | 25 nM | Cc1cc(-c2cc(Cl)ccc2OCCn2c(C)nc3cc(C(F)(F)F)c(N4CCN(C)CC4)cc3c2=O)c2scc(C(=O)O)c2n1 [compound 427]
< 50 nM | 7.45 nM | Cc1cc(-c2cc(Cl)ccc2OCCn2c(C)nc3cc(C(F)(F)F)c(N4CCN(CC(F)F)CC4)c(C#N)c3c2=O)c2scc(C(=O)O)c2n1 [compound 428]
< 50 nM | – | Cc1cc(-c2cc(Cl)ccc2OCCn2c(C)nc3cc(C(F)(F)F)c(C4=CCOCC4)c(C#N)c3c2=O)c2scc(C(=O)O)c2n1 [compound 429]
< 50 nM | 9 nM | Cc1cc(-c2cc(Cl)ccc2OCCn2c(C)nc3cc(C(F)(F)F)c(N4CCN(CCF)CC4)c(C#N)c3c2=O)c2scc(C(=O)O)c2n1 [compound 430]
50 to 1000 nM | 226 nM | Cc1cc(-c2cc(Cl)ccc2OCCn2c(C)nc3cc(C(F)(F)F)c(C4CCOCC4)c(C#N)c3c2=O)c2scc(C(=O)O)c2n1 [compound 431]

IC50 [1] | IC50 [2] | SMILES
< 50 nM | 25.8 nM | Cc1cc(-c2cc(Cl)ccc2OCCn2c(C)nc3cnc(C(C)C)c(C#N)c3c2=O)c2scc(C(=O)O)c2n1 [compound 432]
< 50 nM | 4.15 nM | Cc1cc(-c2cc(Cl)ccc2OCCn2c(C)nc3cc(C(F)(F)F)c(-c4ncc(F)cc4F)c(C#N)c3c2=O)c2scc(C(=O)O)c2n1 [compound 433]
< 50 nM | 7.76 nM | Cc1ccc(F)c(-c2c(C(F)(F)F)cc3nc(C)n(CCOc4ccc(Cl)cc4-c4cc(C)nc5c(C(=O)O)csc45)c(=O)c3c2C#N)n1 [compound 434]
< 50 nM | 16.7 nM | Cc1cc(-c2cc(Cl)ccc2OCCn2c(C)nc3cnc(N4CCC4)c(C#N)c3c2=O)c2scc(C(=O)O)c2n1 [compound 435]
< 50 nM | 7.17 nM | Cc1cc(-c2cc(Cl)ccc2OCCn2c(C)nc3cc(C(F)(F)F)c(-c4ccncc4C)nc3c2=O)c2scc(C(=O)O)c2n1 [compound 436]
< 50 nM | 6.21 nM | Cc1cc(-c2cc(Cl)ccc2OCCn2c(C)nc3cc(C(F)(F)F)c(-c4cnc(C)nc4C)c(C#N)c3c2=O)c2scc(C(=O)O)c2n1 [compound 437]
< 50 nM | 9.16 nM | Cc1cc(-c2cc(Cl)ccc2OCCn2c(C)nc3cc(C(F)F)c(-c4cc(F)cnc4C)c(C#N)c3c2=O)c2scc(C(=O)O)c2n1 [compound 438]
< 50 nM | 4.99 nM | Cc1cc(-c2cc(Cl)ccc2OCCn2c(C)nc3cc(C(F)F)c(-c4cccnc4C)c(C#N)c3c2=O)c2scc(C(=O)O)c2n1 [compound 440]
< 50 nM | 20.4 nM | Cc1cc(-c2cc(Cl)ccc2OCCn2c(C)nc3c(C)nc(-c4cc(F)cnc4C)c(C#N)c3c2=O)c2scc(C(=O)O)c2n1 [compound 441]
< 50 nM | 17.7 nM | Cc1cc(-c2c(C(F)(F)F)cc3nc(C)n(CCOc4ccc(Cl)cc4-c4cc(C)nc5c(C(=O)O)csc45)c(=O)c3c2C#N)cnn1 [compound 442]
< 50 nM | 30.8 nM | Cc1nc2cc(C(F)(F)F)cc(C#N)c2c(=O)n1CCOc1ccc(Cl)cc1-c1cc(Cl)nc2c(C(=O)O)csc12 [compound 444]
50 to 1000 nM | – | Cc1nc2cc(C(F)(F)F)cc(C#N)c2c(=O)n1CCOc1ccc(Cl)cc1-c1cc(C(N)=O)nc2c(C(=O)O)csc12 [compound 445]
50 to 1000 nM | – | Cc1nc2cc(C(F)(F)F)cc(C#N)c2c(=O)n1CCOc1ccc(Cl)cc1-c1cc(C#N)nc2c(C(=O)O)csc12 [compound 446]
50 to 1000 nM | 84.8 nM | Cc1cc(-c2cc(Cl)ccc2OCCn2c(C)nc3cc(C(F)(F)F)cc(C#N)c3c2=O)c2csc(C(=O)O)c2n1 [compound 447]
< 50 nM | 4.2 nM | Cc1nc(N2CCN(C)CC2)c(C#N)c2c(=O)n(CCOc3ccc(Cl)cc3-c3ccnc4c(C(=O)O)csc34)c(C)nc12 [compound 448]
< 50 nM | 7.84 nM | Cc1cc(-c2cc(Cl)ccc2C#CCn2c(C)nc3c(C)nc(N4CCN(C)CC4)c(C#N)c3c2=O)c2scc(C(=O)O)c2n1 [compound 450]
< 50 nM | 36 nM | Cc1cc(-c2cc(Cl)ccc2OCCn2c(C)nc3cc(CN(C)C)c(OC(F)F)c(C#N)c3c2=O)c2scc(C(=O)NS(C)(=O)=O)c2n1 [compound 451]
< 50 nM | 46.6 nM | Cc1nc2cc(C(F)(F)F)cc(C#N)c2c(=O)n1CCOc1ccc(Cl)cc1-c1cc(CN)nc2c(C(=O)O)csc12 [compound 452]
> 1000 nM | 2320 nM | Cc1nc2cc(C(F)(F)F)cc(C#N)c2c(=O)n1CCOc1ccnnc1-c1ccnc2c(C(=O)O)csc12 [compound 453]
50 to 1000 nM | 51.1 nM | Cc1nc2cc(C(F)(F)F)cc(C#N)c2c(=O)n1CCOc1cnc(Cl)nc1-c1ccnc2c(C(=O)O)csc12 [compound 454]
50 to 1000 nM | 473 nM | Cc1nc2cc(C(F)(F)F)cc(C#N)c2c(=O)n1CCOc1cnc(C#N)nc1-c1ccnc2c(C(=O)O)csc12 [compound 455]
< 50 nM | 10.9 nM | Cc1nc2cc(OC(F)(F)F)cc(C#N)c2c(=O)n1CCOc1ccc(Cl)cc1-c1ccnc2c(C(=O)O)csc12 [compound 456]
< 50 nM | 11.2 nM | Cc1nc2ccc(OCCN(C)C)c(C#N)c2c(=O)n1CCOc1ccc(Cl)cc1-c1ccnc2c(C(=O)O)csc12 [compound 457]
< 50 nM | 36.8 nM | Cc1nc2cc(CN(C)C)c(OC(F)F)c(C#N)c2c(=O)n1CCOc1ccc(Cl)cc1-c1ccnc2c(C(=O)O)csc12 [compound 458]
< 50 nM | 6.15 nM | Cc1cc(-c2cc(Cl)ccc2OCCn2c(C)nc3cc(C(F)(F)F)c(-c4cccnc4)nc3c2=O)c2scc(C(=O)O)c2n1 [compound 461]
< 50 nM | 10.5 nM | Cc1cc(-c2cc(Cl)ccc2OCCn2c(C)nc3cc(C(F)(F)F)c(-c4ccccn4)nc3c2=O)c2scc(C(=O)O)c2n1 [compound 462]
